Test results published in the NIST ThermoML archive (doi:10.1016/j.jct.2012.02.017).

Legend:
[1] = Ring tensiometer
[2] = xn = mol fraction of the nth substance listed; conditions: Ring tensiometer

CCO [ethanol]
[1]
Conditions | surface tension liquid-gas [mN/m]
288.15 K | 22.08
298.15 K | 21.19
308.15 K | 20.35
318.15 K | 20.18

CO [methanol]
[1]
Conditions | surface tension liquid-gas [mN/m]
288.15 K | 22.37
298.15 K | 21.64
308.15 K | 20.94
318.15 K | 19.93

CCCO [propan-1-ol]
[1]
Conditions | surface tension liquid-gas [mN/m]
288.15 K | 23.34
298.15 K | 22.54
308.15 K | 21.62
318.15 K | 20.99

[2H]O[2H] [water-d2]
[1]
Conditions | surface tension liquid-gas [mN/m]
288.15 K | 73.59
298.15 K | 71.87
308.15 K | 70.21
318.15 K | 68.84

[2H]O[2H] [water-d2] + CCCO
surface tension liquid-gas [mN/m], [2]
Conditions | 288.15 K | 298.15 K | 308.15 K | 318.15 K
x2 = 0.0007 | 70.61 | 68.81 | 67.5 | 66.16
x2 = 0.002 | 66.37 | 63.94 | 62.32 | 61.9
x2 = 0.0033 | 62.9 | 58.5 | 56.44 | 54.18
x2 = 0.0047 | 60.07 | 55.76 | 53.57 | 50.4
x2 = 0.006 | 57.59 | 54.16 | 52.75 | 48.26
x2 = 0.0099 | 52.32 | 48.49 | 46.75 | 45.22
x2 = 0.0165 | 45.84 | 43.67 | 40.52 | 39.54
x2 = 0.0255 | 41.34 | 39.38 | 38.39 | 37.11
x2 = 0.038 | 36.34 | 34.78 | 33.31 | 32.45
x2 = 0.0622 | 29 | 28.09 | 27.45 | 27.03
x2 = 0.138 | 25.81 | 24.9 | 24.75 | 23.58
x2 = 0.1851 | 25.78 | 25.09 | 24.19 | 23.62
x2 = 0.2272 | 25.17 | 24.99 | 24.38 | 23.37
x2 = 0.351 | 24.57 | 23.79 | 23.5 | 22.88
x2 = 0.4933 | 24.2 | 23.58 | 22.8 | 22.12
x2 = 0.6187 | 23.84 | 22.94 | 22.54 | 21.8
x2 = 0.8296 | 23.48 | 22.64 | 22.46 | 21.64

[2H]O[2H] [water-d2] + CCO
surface tension liquid-gas [mN/m], [2]
Conditions | 288.15 K | 298.15 K | 308.15 K | 318.15 K
x2 = 0.0008 | 72.5 | 70.96 | 69.43 | 67.73
x2 = 0.0016 | 71.29 | 69.78 | 68.35 | 66.43
x2 = 0.0023 | 70.28 | 68.67 | 67.12 | 65.55
x2 = 0.0039 | 68.68 | 66.88 | 65.22 | 63.52
x2 = 0.007 | 65.31 | 63.61 | 61.92 | 60.23
x2 = 0.0116 | 62.13 | 59.42 | 58.1 | 56.98
x2 = 0.0191 | 57.62 | 53.65 | 52.63 | 51.86
x2 = 0.0295 | 52.54 | 50.9 | 48.05 | 47.3
x2 = 0.044 | 47.97 | 46.07 | 44.17 | 42.27
x2 = 0.0716 | 41.94 | 38.62 | 36.3 | 33.32
x2 = 0.1103 | 36.22 | 34.15 | 33.1 | 31.3
x2 = 0.157 | 32 | 30.33 | 29.1 | 27.58
x2 = 0.1991 | 30.52 | 29.16 | 28.14 | 27.03
x2 = 0.2462 | 29.15 | 28.17 | 27.39 | 26.56
x2 = 0.345 | 27.29 | 25.99 | 25.03 | 24.63
x2 = 0.4209 | 26.21 | 25.23 | 23.67 | 22.85
x2 = 0.4811 | 25.3 | 24.59 | 23.56 | 22.7
x2 = 0.5703 | 24.34 | 23.44 | 23.02 | 22.3
x2 = 0.6752 | 23.36 | 22.45 | 21.97 | 21.57
x2 = 0.7572 | 22.98 | 21.59 | 20.92 | 20.9
x2 = 0.8618 | 22.37 | 21.48 | 20.41 | 20.11

[2H]O[2H] [water-d2] + CO
surface tension liquid-gas [mN/m], [2]
Conditions | 288.15 K | 298.15 K | 308.15 K | 318.15 K
x2 = 0.0045 | 71.03 | 69.55 | 68.1 | 66.54
x2 = 0.0154 | 66.2 | 65.13 | 64.17 | 62.8
x2 = 0.0304 | 61.24 | 60.45 | 59.67 | 58.88
x2 = 0.0509 | 56.43 | 55.33 | 54.09 | 52.97
x2 = 0.0707 | 52.83 | 52.04 | 51.25 | 50.48
x2 = 0.0896 | 50.23 | 49.45 | 48.65 | 47.92
x2 = 0.1252 | 45.79 | 45.01 | 44.56 | 42.8
x2 = 0.1737 | 42.45 | 41.8 | 40.26 | 39.66
x2 = 0.2171 | 38.51 | 38.07 | 37.7 | 36.61
x2 = 0.2684 | 36.01 | 35.49 | 35.1 | 34.16
x2 = 0.3133 | 34.68 | 34.05 | 33.49 | 32.65
x2 = 0.353 | 33.4 | 32.79 | 32.05 | 31.79
x2 = 0.4271 | 31.83 | 30.79 | 30.29 | 29.42
x2 = 0.5279 | 29.14 | 29.01 | 28.68 | 27.75
x2 = 0.691 | 26.15 | 25.65 | 25.06 | 24.38
x2 = 0.8173 | 23.49 | 22.96 | 22.48 | 21.75
